Measured values as given in patent publication US6737383B1, “Herbicidal oxadiazolidines” (priority 1999, dated 2004).

Experiments:
bedstraw = assay: Test B pre/postemergence bedstraw; format: in vivo, Galium aparine
Summary of the method: (§1)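 Test chemicals in a non-phytotoxic solvent mixture with surfactant were sprayed preemergence onto planted seeds and postemergence onto plants 2 to 18 cm tall (1- to 4-leaf stage). After twelve to sixteen days in a greenhouse, injury was visually rated against untreated controls from 0 (no effect) to 10 (complete control).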

blackgrass = assay: Test B pre/postemergence blackgrass; format: in vivo, Alopecurus myosuroides
Summary of the method: as §1

surinam grass = assay: Test B pre/postemergence surinam grass; format: in vivo, Brachiaria decumbens
Summary of the method: as §1

cocklebur = assay: Test B pre/postemergence cocklebur; format: in vivo, Xanthium strumarium
Summary of the method: as §1

corn = assay: Test B pre/postemergence corn; format: in vivo, Zea mays
Summary of the method: as §1

crabgrass = assay: Test B pre/postemergence crabgrass; format: in vivo, Digitaria sanguinalis
Summary of the method: as §1

giant foxtail = assay: Test B pre/postemergence giant foxtail; format: in vivo, Setaria faberii
Summary of the method: as §1

morningglory = assay: Test B pre/postemergence morningglory; format: in vivo, Ipomoea hederacea
Summary of the method: as §1

pigweed = assay: Test B pre/postemergence pigweed; format: in vivo, Amaranthus retroflexus
Summary of the method: as §1

rape = assay: Test B pre/postemergence rape; format: in vivo, Brassica napus
Summary of the method: as §1

soybean = assay: Test B pre/postemergence soybean; format: in vivo, Glycine max
Summary of the method: as §1

sugar beet = assay: Test B pre/postemergence sugar beet; format: in vivo, Beta vulgaris
Summary of the method: as §1

velvetleaf = assay: Test B pre/postemergence velvetleaf; format: in vivo, Abutilon theophrasti
Summary of the method: as §1

wheat = assay: Test B pre/postemergence wheat; format: in vivo, Triticum aestivum
Summary of the method: as §1

wild oat = assay: Test B pre/postemergence wild oat; format: in vivo, Avena fatua
Summary of the method: as §1

purple nutsedge = assay: Test B pre/postemergence purple nutsedge; format: in vivo, Cyperus rotundus
Summary of the method: as §1

rice = assay: Test B flood test rice; format: in vivo, Oryza sativa
Summary of the method: (§2)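 Read-out is a visual response score from 0 (no effect) to 10 (complete control), assigned by comparison with untreated controls. Treatment was applied at the 2-leaf stage, and plants stayed in the greenhouse for twelve to sixteen days before scoring.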

smallflower flatsedge = assay: Test B flood test smallflower flatsedge; format: in vivo, Cyperus difformis
Summary of the method: as §2

duck salad = assay: Test B flood test duck salad; format: in vivo, Heteranthera limosa
Summary of the method: as §2

bamyardgrass = assay: Test B flood test barnyardgrass; format: in vivo, Echinochloa crus-galli
Summary of the method: as §2

[1] = Preemergence, Rate 62 g/ha, scale of 0 to 10 where 0 is no effect and 10 is complete control
[2] = Preemergence, Rate 125 g/ha, 0 is no effect, 10 is complete control
[3] = Preemergence, Rate 250 g/ha, scale 0 to 10, 0 is no effect, 10 is complete control
[4] = Rate 62 g/ha, Postemergence, scale of 0 to 10 where 0 is no effect and 10 is complete control
[5] = Rate 125 g/ha, Postemergence, scale 0 to 10
[6] = Rate 62 g/ha, headed Pre-emergence (flood test species), scale 0 to 10 (0 no effect, 10 complete control)
[7] = Rate 125 g/ha, Pre-emergence, flood test species, scale 0 to 10 where 0 is no effect and 10 is complete control
[8] = Rate 250 g/ha, Pre-emergence, flood-test species, scale 0 to 10, 0 is no effect, 10 is complete control
[9] = Rate 500 g/ha, headed Pre-emergence (flood test species), scale 0 to 10 (0 no effect, 10 complete control)

Cc1ccccc1-n1c(=O)on(C(=O)N(c2ccc(F)cc2Cl)C(C)C)c1=O [Compound 186]
8: Plant response rating (0 to 10; 0 is no effect, 10 is complete control), Bedstraw (bedstraw; Rate 250 g/ha, Postemergence)
0: Bedstraw plant response rating (bedstraw; [1]) | Bedstraw plant response rating (0 to 10 scale) (bedstraw; [2]) | Bedstraw plant response rating (bedstraw; [3]) | Bedstraw plant response rating (bedstraw; [4]) | Bedstraw plant response rating (bedstraw; [5]) | Blackgrass plant response rating (blackgrass; [1]) | Blackgrass plant response rating (0 to 10 scale) (blackgrass; [2]) | Blackgrass plant response rating (blackgrass; [4]) | Blackgrass plant response rating (blackgrass; [5]) | B. signalgrass plant response rating (surinam grass; [1]) | B. signalgrass plant response rating (0 to 10 scale) (surinam grass; [2]) | B. signalgrass plant response rating (surinam grass; [3]) | B. signalgrass plant response rating (surinam grass; [4]) | B. signalgrass plant response rating (surinam grass; Rate 125 g/ha, Postemergence, scale 0 (no effect) to 10 (complete control)) | Plant response rating, B. signalgrass (surinam grass; Rate 250 g/ha, Postemergence, scale 0 to 10, 0 is no effect, 10 is complete control) | Cocklebur plant response rating (cocklebur; [1]) | Cocklebur plant response rating (0 to 10 scale) (cocklebur; [2]) | Cocklebur plant response rating (cocklebur; [3]) | Cocklebur plant response rating (cocklebur; [4]) | Cocklebur plant response rating (cocklebur; [5]) | Plant response rating (0 to 10; 0 is no effect, 10 is complete control), Cocklebur (cocklebur; Rate 250 g/ha, Postemergence) | Corn plant response rating (corn; [1]) | Corn plant response rating (0 to 10 scale) (corn; [2]) | Corn plant response rating (corn; [3]) | Corn plant response rating (corn; [4]) | Corn plant response rating (corn; [5]) | Plant response rating (0 to 10; 0 is no effect, 10 is complete control), Corn (corn; Rate 250 g/ha, Postemergence) | Crabgrass plant response rating (crabgrass; [4]) | Crabgrass plant response rating (crabgrass; [5]) | Giant foxtail plant response rating (giant foxtail; [4]) | Giant foxtail plant response rating (giant foxtail; [5]) | Plant response rating (0 to 10; 0 is no effect, 10 is complete control), Giant foxtail (giant foxtail; Rate 250 g/ha, Postemergence) | Morningglory plant response rating (morningglory; [1]) | Morningglory plant response rating (0 to 10 scale) (morningglory; [2]) | Morningglory plant response rating (morningglory; [3]) | Redroot pigweed plant response rating (pigweed; [1]) | Redroot pigweed plant response rating (0 to 10 scale) (pigweed; [2]) | Redroot pigweed plant response rating (pigweed; [4]) | Redroot pigweed plant response rating (pigweed; [5]) | Plant response rating (0 to 10; 0 is no effect, 10 is complete control), Redroot pigweed (pigweed; Rate 250 g/ha, Postemergence) | Rape plant response rating (rape; [1]) | Rape plant response rating (0 to 10 scale) (rape; [2]) | Rape plant response rating (rape; [3]) | Rape plant response rating (rape; [4]) | Rape plant response rating (rape; [5]) | Plant response rating (0 to 10; 0 is no effect, 10 is complete control), Rape (rape; Rate 250 g/ha, Postemergence) | Soybean plant response rating (soybean; [1]) | Soybean plant response rating (0 to 10 scale) (soybean; [2]) | Soybean plant response rating (soybean; [3]) | Sugarbeets plant response rating (sugar beet; [1]) | Sugarbeets plant response rating (0 to 10 scale) (sugar beet; [2]) | Sugarbeets plant response rating (sugar beet; [3]) | Sugarbeets plant response rating (sugar beet; [4]) | Sugarbeets plant response rating (sugar beet; [5]) | Plant response rating (0 to 10; 0 is no effect, 10 is complete control), Sugarbeets (sugar beet; Rate 250 g/ha, Postemergence) | Velvetleaf plant response rating (velvetleaf; [1]) | Velvetleaf plant response rating (velvetleaf; [5]) | Plant response rating (0 to 10; 0 is no effect, 10 is complete control), Velvetleaf (velvetleaf; Rate 250 g/ha, Postemergence) | Wheat plant response rating (wheat; [1]) | Wheat plant response rating (wheat; [3]) | Wheat plant response rating (wheat; [5]) | Plant response rating (0 to 10; 0 is no effect, 10 is complete control), Wheat (wheat; Rate 250 g/ha, Postemergence) | Wild oats plant response rating (wild oat; [1]) | Wild oats plant response rating (wild oat; [3]) | Wild oats plant response rating (wild oat; [5]) | Plant response rating (0 to 10; 0 is no effect, 10 is complete control), Wild oats (wild oat; Rate 250 g/ha, Postemergence) | Nutsedge plant response rating (purple nutsedge; [1]) | Nutsedge plant response rating (0 to 10 scale) (purple nutsedge; [2]) | Nutsedge plant response rating (purple nutsedge; [4]) | Nutsedge plant response rating (purple nutsedge; [5]) | Rice plant response rating (rice; [6]) | Rice plant response rating (rice; [7]) | Rice plant response rating (rice; [8]) | Plant response rating, Rice (rice; [9]) | S. Flatsedge plant response rating (smallflower flatsedge; [6]) | S. Flatsedge plant response rating (smallflower flatsedge; [7]) | S. Flatsedge plant response rating (smallflower flatsedge; [8]) | S. Flatsedge plant response rating (smallflower flatsedge; Rate 500 g/ha, Pre-emergence, flood test species, scale 0 to 10 (0 no effect, 10 complete control)) | Ducksalad plant response rating (duck salad; [6]) | Ducksalad plant response rating (duck salad; [7]) | Ducksalad plant response rating (duck salad; [8]) | Plant response rating, Ducksalad (duck salad; [9]) | Barnyardgrass plant response rating (bamyardgrass; [6]) | Barnyardgrass plant response rating (bamyardgrass; [7]) | Barnyardgrass plant response rating (bamyardgrass; [8]) | Plant response rating, Barnyardgrass (bamyardgrass; [9])
6: Crabgrass plant response rating (0 to 10 scale) (crabgrass; [2]) | Crabgrass plant response rating (crabgrass; [3])
5: Giant foxtail plant response rating (giant foxtail; [1])
9: Giant foxtail plant response rating (0 to 10 scale) (giant foxtail; [2]) | Giant foxtail plant response rating (giant foxtail; [3])
1: Morningglory plant response rating (morningglory; [4]) | Soybean plant response rating (soybean; [4]) | Soybean plant response rating (soybean; [5])
4: Plant response rating (0 to 10; 0 is no effect, 10 is complete control), Blackgrass (blackgrass; Rate 250 g/ha, Postemergence)
3: Blackgrass plant response rating (blackgrass; [3])
2: Crabgrass plant response rating (crabgrass; [1]) | Plant response rating (0 to 10; 0 is no effect, 10 is complete control), Crabgrass (crabgrass; Rate 250 g/ha, Postemergence) | Morningglory plant response rating (morningglory; [5]) | Plant response rating (0 to 10; 0 is no effect, 10 is complete control), Morningglory (morningglory; Rate 250 g/ha, Postemergence) | Redroot pigweed plant response rating (pigweed; [3]) | Plant response rating (0 to 10; 0 is no effect, 10 is complete control), Soybean (soybean; Rate 250 g/ha, Postemergence) | Velvetleaf plant response rating (velvetleaf; [3]) | Plant response rating (0 to 10; 0 is no effect, 10 is complete control), Nutsedge (purple nutsedge; Rate 250 g/ha, Postemergence)
